For orientation: EC50 means the midpoint of the concentration-response curve. The term Ki denotes the equilibrium dissociation constant of an inhibitor or competing ligand from its target.

Assay [1] deals with AP-1 induced transcriptional activity. As to the kind of experiment: Cellular Transrepressional Assay (AP-1 luciferase reporter in A549 cells, PMA-activated). It counts as cell-based. Particulars: pAP-1-Luc, 10 ng/ml PMA, read-out: AP-1 (EC50, nM) (Cellular Transrepression Assay). As for the experimental part:
To measure the ability of test molecules to inhibit AP-1 induced transcriptional activity an A549 cell was utilized which was stably transfected with a plasmid containing 7×AP-1 DNA binding sites (pAP-1-Luc plasmid, Stratagene Co. La Jolla, Calif.) followed by the gene for luciferase. Cells were activated with 10 ng/ml of phorbol myristic acid (PMA) plus or minus test molecules for 7 hours. After 7 hours a luciferase reagent was added to measure luciferase enzymatic activity in the cell. After a 10 minute incubation of luciferase reagent with cells, luminescence was measured in a TopCount luminescence counter. Repression of AP-1 activity was calculated as the percentage decrease in the signal induced by PMA alone. Test molecules were analyzed in the concentration range from 0.1 nM to 40 μM. EC50s were determined by using standard curve fitting methods such as Excel fit (Microsoft Co.).
A general note: In a reporter assay the amount or activity of a reporter protein is the signal.

Assay [2] has as its target T1, human glucocorticoid receptor (Homo sapiens, UniProt P04150).
T1 construct: purified human recombinant full-length glucocorticoid receptor (2 nM); purchased Invitrogen Part # 2893
T1 sequence (P04150 1-777): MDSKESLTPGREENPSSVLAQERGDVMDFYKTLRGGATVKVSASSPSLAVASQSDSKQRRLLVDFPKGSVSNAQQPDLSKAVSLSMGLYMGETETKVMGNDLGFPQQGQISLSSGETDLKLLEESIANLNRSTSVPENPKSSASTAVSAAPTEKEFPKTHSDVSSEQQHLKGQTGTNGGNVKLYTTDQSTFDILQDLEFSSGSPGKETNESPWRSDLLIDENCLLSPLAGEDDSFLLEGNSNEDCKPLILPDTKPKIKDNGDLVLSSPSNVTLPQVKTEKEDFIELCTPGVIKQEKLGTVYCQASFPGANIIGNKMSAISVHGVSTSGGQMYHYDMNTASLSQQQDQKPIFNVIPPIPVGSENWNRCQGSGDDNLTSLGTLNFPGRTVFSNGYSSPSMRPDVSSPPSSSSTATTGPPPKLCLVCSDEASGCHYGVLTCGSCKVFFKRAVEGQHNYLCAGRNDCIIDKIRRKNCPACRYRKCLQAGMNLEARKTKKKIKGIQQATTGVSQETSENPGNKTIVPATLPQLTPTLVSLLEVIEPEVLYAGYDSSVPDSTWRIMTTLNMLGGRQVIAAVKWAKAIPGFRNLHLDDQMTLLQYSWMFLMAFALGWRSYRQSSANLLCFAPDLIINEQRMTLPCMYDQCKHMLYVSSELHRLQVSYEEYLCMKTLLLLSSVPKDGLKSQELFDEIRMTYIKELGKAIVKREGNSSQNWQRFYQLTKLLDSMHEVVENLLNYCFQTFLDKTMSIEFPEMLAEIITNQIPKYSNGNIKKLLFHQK
Nature of the assay: Glucocorticoid Receptor Binding Assay (I), fluorescence polarization competitor kit (Fluormone GS Red). Particulars: purified human recombinant full-length GR. As for the experimental part:
In order to assess the affinity of test compounds for the human glucocorticoid receptor, a commercially available kit was used (Glucocorticoid Receptor Competitor Assay Kit, Invitrogen Part # 2893). Briefly, purified human recombinant full-length glucocorticoid receptor (2 nM) was mixed with fluorescently labeled glucocorticoid (1 nM Fluormone GS Red) in the presence or absence of test compound. After two hour incubation at room temperature in the dark, the fluorescence polarization (FP) of the samples was measured. […] Test compounds were analyzed in the concentration range from 8.5E-05 μM to 5 μM.

SMILES strings stand for the structures. Where two headings read alike, the source gives them in different places.

Consider `CCC(c1ccc2c(cnn2-c2ccc(F)cc2)c1)C(C)(C)CNC(=O)NC(C)(C)C` (stereo not shown) [Example 101, 1-tert-butyl-3-(3-(1-(4-fluorophenyl)-1H-indazol-5-yl)-2,2-dimethylpentyl)urea], for which the 50% effective concentration (EC50) in assay [1] (Homo sapiens, A549, 7 h) was 132 nM. For the same compound, the Ki in assay [2] amounted to 2.1 nM.

Take `CC(C)CC(c1ccc2c(cnn2-c2ccc(F)cc2)c1)C(C)(C)CNC(=O)Nc1ccccc1` (stereo not shown) [Example 50, 1-(3-(1-(4-fluorophenyl)-1H-indazol-5-yl)-2,2,5-trimethylhexyl)-3-phenylurea]: in assay [1] (Homo sapiens, A549, 7 h), the EC50 was found to be 223 nM. For the same compound, the inhibitory constant (Ki) in assay [2] amounted to 7.5 nM.

With `CC(CNS(=O)(=O)C(C)C)C(c1ccccc1)c1ccc2c(cnn2-c2ccc(F)cc2)c1` (stereo not shown) [Example 94, N-(3-(1-(4-fluorophenyl)-1H-indazol-5-yl)-2-methyl-3-phenylpropyl)propane-2-sulfonamide], the EC50 in assay [1] (Homo sapiens, A549, 7 h) worked out at 12 nM. The Ki in assay [2] is 0.73 nM.

Take `CC(C)CC(c1ccc2c(cnn2-c2ccc(F)cc2)c1)C(C)(C)CNC(=O)NC(C)(C)Cc1ccc(F)cc1` (stereo not shown) [Example 54, 1-(3-(1-(4-fluorophenyl)-1H-indazol-5-yl)-2,2,5-trimethylhexyl)-3-(1-(4-fluorophenyl)-2-methylpropan-2-yl)urea]: the EC50 in assay [1] (Homo sapiens, A549, 7 h) stood at 285 nM. The inhibition constant (Ki) in assay [2] came to 22 nM.

As to `CC(C)CC(c1ccc2c(cnn2-c2ccc(F)cc2)c1)C(C)(C)CNC(=O)N[C@@H]1CCc2ccccc21` (stereo partly drawn) [Example 71B, 1-((R)-2,3-dihydro-1H-inden-1-yl)-3-(3-(1-(4-fluorophenyl)-1H-indazol-5-yl)-2,2,5-trimethylhexyl)urea], the half-maximal effective concentration (EC50) in assay [1] (Homo sapiens, A549, 7 h) worked out at 511 nM. Moreover, the Ki in assay [2] stood at 6.5 nM.

For the compound `CC(CNC(=O)NC(C)(C)C)C(c1ccccc1)c1ccc2c(cnn2-c2ccc(F)cc2)c1` (single isomer, unassigned) [Example 97A, 1-tert-butyl-3-(3-(1-(4-fluorophenyl)-1H-indazol-5-yl)-2-methyl-3-phenylpropyl)urea], the EC50 in assay [1] (7 hours) came out at 71 nM. For the same compound, the Ki in assay [2] was 4 nM.

As to `CC(C)(CNS(=O)(=O)CC(F)(F)F)[C@@H](c1ccccc1)c1ccc2c(cnn2-c2ccc(F)cc2)c1` [Example 18, (S)-2,2,2-trifluoro-N-(3-(1-(4-fluorophenyl)-1H-indazol-5-yl)-2,2-dimethyl-3-phenylpropyl)ethanesulfonamide], the EC50 in assay [1] (Homo sapiens, A549, 7 h) was determined as 25 nM. Besides, in assay [2], the Ki was 1.1 nM.

For the compound `CC(C)CC(c1ccc2c(cnn2-c2ccc(F)cc2)c1)C(C)(C)CNC(=O)[C@H](O)C(C)(C)C` (single isomer, unassigned) [Example 69 diastA, N-(3-(1-(4-fluorophenyl)-1H-indazol-5-yl)-2,2,5-trimethylhexyl)-2-hydroxy-3,3-dimethylbutanamide], the half-maximal effective concentration (EC50) in assay [1] (Homo sapiens, A549, 7 h) was > 10000 nM. In assay [2], the inhibition constant (Ki) was 3.7 nM.

For `CC(C)CC(c1ccc2c(cnn2-c2ccc(F)cc2)c1)C(C)(C)CNC(=O)NC(C)(C)c1ccccc1` (stereo not shown) [Example 48, 1-(3-(1-(4-fluorophenyl)-1H-indazol-5-yl)-2,2,5-trimethylhexyl)-3-(2-phenylpropan-2-yl)urea], the EC50 in assay [1] (Homo sapiens, A549, 7 h) is 42 nM. Besides, the inhibitory constant (Ki) in assay [2] was 3.1 nM.

Regarding `CCS(=O)(=O)NCC(C)C(c1ccccc1)c1ccc2c(cnn2-c2ccc(F)cc2)c1` (stereo not shown) [Example 93, N-(3-(1-(4-fluorophenyl)-1H-indazol-5-yl)-2-methyl-3-phenylpropyl)ethanesulfonamide], the EC50 in assay [1] (Homo sapiens, A549, 7 h) was determined as 5.6 nM. For the same compound, the inhibition constant Ki in assay [2] was determined as 0.92 nM.

For `CC(C)(C)NC(=O)NCC(C)(C)C(c1ccc2c(cnn2-c2ccc(F)cc2)c1)C1CCCC1` (stereo not shown) [Example 106, 1-tert-butyl-3-(3-cyclopentyl-3-(1-(4-fluorophenyl)-1H-indazol-5-yl)-2,2-dimethylpropyl)urea], in assay [1] (Homo sapiens, A549, 7 h), the EC50 was found to be 304 nM. The inhibitory constant (Ki) in assay [2] is 3.3 nM.

As to `CCCC(c1ccc2c(cnn2-c2ccc(F)cc2)c1)C(C)(C)CNC(=O)NC(C)(C)C` (stereo not shown) [Example 104, 1-tert-butyl-3-(3-(1-(4-fluorophenyl)-1H-indazol-5-yl)-2,2-dimethylhexyl)urea], the 50% effective concentration (EC50) in assay [1] (Homo sapiens, A549, 7 h) was 23 nM. Also, the inhibition constant Ki in assay [2] came out at 2.1 nM.

For `CC(CNC(=O)CC(F)(F)F)C(c1ccccc1)c1ccc2c(cnn2-c2ccc(F)cc2)c1` (single isomer, unassigned) [Example 90C, 3,3,3-trifluoro-N-(3-(1-(4-fluorophenyl)-1H-indazol-5-yl)-2-methyl-3-phenylpropyl)propanamide], in assay [1] (7 hours), the concentration for a half-maximal effect (EC50) was 7.4 nM. For the same compound, in assay [2], the inhibitory constant (Ki) is 2.4 nM.

As for `CC(C)CC(c1ccc2c(cnn2-c2ccc(F)cc2)c1)C(C)(C)CNC(=O)N[C@@H](C)c1cccc2ccccc12` (stereo partly drawn) [Example 76, 1-(3-(1-(4-fluorophenyl)-1H-indazol-5-yl)-2,2,5-trimethylhexyl)-3-((S)-1-(naphthalene-1-yl)ethyl)urea], in assay [1] (Homo sapiens, A549, 7 h), the half-maximal effective concentration (EC50) was > 10000 nM. In addition, the Ki in assay [2] amounted to 8.7 nM.

For the compound `CC(C)CC(c1ccc2c(cnn2-c2ccc(F)cc2)c1)C(C)(C)CNC(=O)N[C@H](C)c1cccc2ccccc12` (stereo partly drawn) [Example 75, 1-(3-(1-(4-fluorophenyl)-1H-indazol-5-yl)-2,2,5-trimethylhexyl)-3-((R)-1-(naphthalene-1-yl)ethyl)urea], the concentration giving a half-maximal response (EC50) in assay [1] (Homo sapiens, A549, 7 h) turned out to be 628 nM. In assay [2], the Ki was found to be 8.9 nM.

As for `Cc1ccc(C(C)(C)NC(=O)NCC(C)(C)C(CC(C)C)c2ccc3c(cnn3-c3ccc(F)cc3)c2)c(C)n1` (stereo not shown) [Example 52, 1-(2-(2,6-dimethylpyridin-3-yl)propan-2-yl)-3-(3-(1-(4-fluorophenyl)-1H-indazol-5-yl)-2,2,5-trimethylhexyl)urea], the EC50 in assay [1] (Homo sapiens, A549, 7 h) stood at 772 nM. Also, the inhibitory constant (Ki) in assay [2] turned out to be 2.3 nM.

For `CC(CNC(=O)NC(C)(C)C)C(c1ccccc1)c1ccc2c(cnn2-c2ccc(F)cc2)c1` (single isomer, unassigned) [Example 97B, 1-tert-butyl-3-(3-(1-(4-fluorophenyl)-1H-indazol-5-yl)-2-methyl-3-phenylpropyl)urea], in assay [1] (7 hours), the EC50 was 136 nM. In addition, in assay [2], the Ki is 43 nM.

On to `CC(C)(CNC(=O)Nc1ccccn1)C(C)(C)c1ccc2c(cnn2-c2ccc(F)cc2)c1` [Example 116, 1-(3-(1-(4-fluorophenyl)-1H-indazol-5-yl)-2,2,3-trimethylbutyl)-3-(pyridin-2-yl)urea], for which the EC50 in assay [1] (Homo sapiens, A549, 7 h) was > 10000 nM. The Ki in assay [2] is 177 nM.

As to `CC(C)CC(c1ccc2c(cnn2-c2ccc(F)cc2)c1)C(C)(C)CNC(=O)NC1CCC(C(C)(C)C)CC1` (stereo not shown) [Example 74, 1-(4-tert-butylcyclohexyl)-3-(3-(1-(4-fluorophenyl)-1H-indazol-5-yl)-2,2,5-trimethylhexyl)urea], the EC50 in assay [1] (Homo sapiens, A549, 7 h) is > 10000 nM. Besides, in assay [2], the inhibition constant Ki came out at 26 nM.

For the compound `CC(C)CC(c1ccc2c(cnn2-c2ccc(F)cc2)c1)C(C)(C)CNC(=O)NC(C)(C)c1ccnc(C(C)(C)C)c1` (stereo not shown) [Example 64, 1-(2-(2-tert-butylpyridin-4-yl)propan-2-yl)-3-(3-(1-(4-fluorophenyl)-1H-indazol-5-yl)-2,2,5-trimethylhexyl)urea], the EC50 in assay [1] (Homo sapiens, A549, 7 h) was > 10000 nM. Further, the Ki in assay [2] amounted to 17 nM.

With `CCCS(=O)(=O)NCC(C)C(c1ccccc1)c1ccc2c(cnn2-c2ccc(F)cc2)c1` (stereo not shown) [Example 95, N-(3-(1-(4-fluorophenyl)-1H-indazol-5-yl)-2-methyl-3-phenylpropyl)propane-1-sulfonamide], the EC50 in assay [1] (Homo sapiens, A549, 7 h) turned out to be 27 nM. Moreover, in assay [2], the Ki was determined as 1.2 nM.

Consider `CC(C)CC(c1ccc2c(cnn2-c2ccc(F)cc2)c1)C(C)(C)CNC(=O)[C@@H](O)C(C)(C)C` (single isomer, unassigned) [Example 69 diastB, N-(3-(1-(4-fluorophenyl)-1H-indazol-5-yl)-2,2,5-trimethylhexyl)-2-hydroxy-3,3-dimethylbutanamide], for which the concentration for a half-maximal effect (EC50) in assay [1] (Homo sapiens, A549, 7 h) was > 10000 nM. Further, in assay [2], the inhibitory constant (Ki) came to 3.4 nM.

Consider `CCCC(CNS(=O)(=O)CC(F)(F)F)C(c1ccccc1)c1ccc2c(cnn2-c2ccc(F)cc2)c1` (stereo not shown) [Example 99, 2,2,2-Trifluoro-N-(2-((1-(4-fluorophenyl)-1H-indazol-5-yl)(phenyl)methyl)pentyl)ethanesulfonamide], for which, in assay [1] (Homo sapiens, A549, 7 h), the EC50 was found to be 40 nM. Further, the Ki in assay [2] was 6.1 nM.
